Experimental data as given in PMC4718143, “A novel protocol for the one-pot borylation/Suzuki reaction provides easy access to hinge-binding groups for kinase inhibitors” (Organic & Biomolecular Chemistry, 2015).
Where two headings read alike, the source gives them in different places. One block for each compound: values may come before it.

Key:
Type in all cases: biochemical
RSK1 = biological target: T1, RSK1 (Homo sapiens, UniProt Q15418); assay: ProfilerPro kinase panel, single concentration […]
T1 construct: gene RPS6KA1

AurA = biological target: T2, AurA (Homo sapiens, UniProt O14965); assay: ProfilerPro kinase panel, single concentration […]
T2 construct: gene AURKA
T2 sequence (O14965 1-403): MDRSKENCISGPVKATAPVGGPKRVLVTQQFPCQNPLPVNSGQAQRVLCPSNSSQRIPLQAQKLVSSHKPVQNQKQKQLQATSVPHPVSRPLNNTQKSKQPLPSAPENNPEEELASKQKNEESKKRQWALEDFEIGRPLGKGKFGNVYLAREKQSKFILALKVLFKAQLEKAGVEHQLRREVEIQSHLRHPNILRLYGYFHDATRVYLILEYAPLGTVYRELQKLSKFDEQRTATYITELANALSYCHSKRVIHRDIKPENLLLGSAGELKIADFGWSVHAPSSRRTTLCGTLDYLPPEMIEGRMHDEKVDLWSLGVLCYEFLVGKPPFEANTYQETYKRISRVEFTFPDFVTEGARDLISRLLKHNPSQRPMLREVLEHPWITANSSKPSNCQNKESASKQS

PKD2 = biological target: T3, PKD2 (Homo sapiens, UniProt Q9BZL6); assay: ProfilerPro kinase panel, single concentration […]
T3 construct: gene PRKD2
T3 sequence (Q9BZL6 1-878): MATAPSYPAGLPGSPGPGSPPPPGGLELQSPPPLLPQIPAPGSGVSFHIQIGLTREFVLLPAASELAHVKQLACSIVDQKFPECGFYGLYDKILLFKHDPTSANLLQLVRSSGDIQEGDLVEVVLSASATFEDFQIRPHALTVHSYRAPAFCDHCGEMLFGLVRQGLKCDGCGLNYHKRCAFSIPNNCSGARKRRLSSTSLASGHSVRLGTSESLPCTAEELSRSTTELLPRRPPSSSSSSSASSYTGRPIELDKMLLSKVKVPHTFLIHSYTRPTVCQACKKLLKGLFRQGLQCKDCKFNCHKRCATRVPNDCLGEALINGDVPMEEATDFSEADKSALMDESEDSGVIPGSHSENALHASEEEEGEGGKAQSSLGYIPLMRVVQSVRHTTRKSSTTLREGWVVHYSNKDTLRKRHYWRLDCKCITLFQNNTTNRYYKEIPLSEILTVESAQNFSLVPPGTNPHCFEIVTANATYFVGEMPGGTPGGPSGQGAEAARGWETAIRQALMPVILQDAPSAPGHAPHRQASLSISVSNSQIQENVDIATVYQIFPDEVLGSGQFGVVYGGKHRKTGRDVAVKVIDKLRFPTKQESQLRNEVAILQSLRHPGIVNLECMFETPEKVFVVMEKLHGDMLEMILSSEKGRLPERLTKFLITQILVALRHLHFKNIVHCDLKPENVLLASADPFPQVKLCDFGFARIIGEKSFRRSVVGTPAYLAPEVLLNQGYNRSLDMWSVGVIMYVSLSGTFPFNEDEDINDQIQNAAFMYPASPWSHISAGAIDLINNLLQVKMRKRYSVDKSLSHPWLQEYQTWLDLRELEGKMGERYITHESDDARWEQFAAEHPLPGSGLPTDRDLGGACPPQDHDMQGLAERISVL

INSR = INSR (Homo sapiens, UniProt P06213); assay: ProfilerPro kinase panel, single concentration […]
CHK2 = biological target: T4, CHK2 (Homo sapiens, UniProt O96017); assay: ProfilerPro kinase panel, single concentration […]
T4 construct: gene CHEK2

ABL [1] = biological target: T5, ABL (Homo sapiens, UniProt P00519); assay: kinase inhibition IC50 (Invitrogen), following ProfilerPro kinase panel ([…] at […])
T5 construct: gene ABL1

ABL [2] = biological target: T5, ABL; assay: as above; remark: listed apart in the source

T5 sequence (P00519 whole entry): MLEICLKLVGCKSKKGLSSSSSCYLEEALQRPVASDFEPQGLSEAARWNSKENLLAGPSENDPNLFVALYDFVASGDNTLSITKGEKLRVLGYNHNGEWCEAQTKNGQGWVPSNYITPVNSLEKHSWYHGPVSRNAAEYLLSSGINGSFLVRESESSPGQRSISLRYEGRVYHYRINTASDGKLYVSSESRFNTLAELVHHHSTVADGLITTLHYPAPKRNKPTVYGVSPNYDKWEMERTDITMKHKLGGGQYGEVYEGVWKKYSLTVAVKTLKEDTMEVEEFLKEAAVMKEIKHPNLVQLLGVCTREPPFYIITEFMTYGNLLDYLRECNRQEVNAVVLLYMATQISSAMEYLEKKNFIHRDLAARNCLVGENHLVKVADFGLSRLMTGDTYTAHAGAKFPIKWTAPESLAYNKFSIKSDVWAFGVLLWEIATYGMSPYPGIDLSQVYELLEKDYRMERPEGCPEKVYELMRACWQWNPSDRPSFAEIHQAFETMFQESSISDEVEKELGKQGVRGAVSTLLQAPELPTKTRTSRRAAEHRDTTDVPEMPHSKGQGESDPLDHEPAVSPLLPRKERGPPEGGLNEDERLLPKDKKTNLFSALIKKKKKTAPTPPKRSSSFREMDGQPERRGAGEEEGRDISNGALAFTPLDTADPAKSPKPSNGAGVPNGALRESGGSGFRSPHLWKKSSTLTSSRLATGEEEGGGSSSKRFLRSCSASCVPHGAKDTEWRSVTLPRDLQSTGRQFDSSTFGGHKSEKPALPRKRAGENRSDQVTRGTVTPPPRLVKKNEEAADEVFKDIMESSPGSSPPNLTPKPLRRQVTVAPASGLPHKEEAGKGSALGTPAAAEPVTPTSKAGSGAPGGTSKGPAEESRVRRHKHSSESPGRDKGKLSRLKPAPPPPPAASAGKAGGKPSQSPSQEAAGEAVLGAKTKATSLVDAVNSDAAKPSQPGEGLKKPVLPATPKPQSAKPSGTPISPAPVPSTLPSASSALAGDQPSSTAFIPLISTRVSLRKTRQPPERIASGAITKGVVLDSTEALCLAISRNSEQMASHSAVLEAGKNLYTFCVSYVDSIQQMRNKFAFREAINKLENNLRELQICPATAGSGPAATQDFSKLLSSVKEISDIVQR
T1 sequence (Q15418 whole entry): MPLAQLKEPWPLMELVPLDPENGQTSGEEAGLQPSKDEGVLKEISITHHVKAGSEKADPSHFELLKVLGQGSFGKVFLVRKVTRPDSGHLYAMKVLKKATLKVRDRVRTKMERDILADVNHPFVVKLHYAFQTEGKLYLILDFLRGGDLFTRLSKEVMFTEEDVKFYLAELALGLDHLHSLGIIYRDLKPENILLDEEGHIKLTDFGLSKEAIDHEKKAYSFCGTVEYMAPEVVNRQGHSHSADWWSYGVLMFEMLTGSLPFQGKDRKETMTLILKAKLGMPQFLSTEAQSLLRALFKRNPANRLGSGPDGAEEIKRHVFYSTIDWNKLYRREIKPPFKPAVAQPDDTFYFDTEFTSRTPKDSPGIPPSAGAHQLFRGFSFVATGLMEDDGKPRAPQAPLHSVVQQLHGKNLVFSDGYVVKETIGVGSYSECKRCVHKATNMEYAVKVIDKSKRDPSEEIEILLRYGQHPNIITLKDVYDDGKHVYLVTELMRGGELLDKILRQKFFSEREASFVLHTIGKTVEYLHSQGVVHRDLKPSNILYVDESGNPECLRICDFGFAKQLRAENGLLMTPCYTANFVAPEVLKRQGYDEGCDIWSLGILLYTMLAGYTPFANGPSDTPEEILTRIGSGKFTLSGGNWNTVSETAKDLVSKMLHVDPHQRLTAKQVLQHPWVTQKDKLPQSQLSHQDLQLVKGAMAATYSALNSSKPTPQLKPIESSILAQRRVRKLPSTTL
T4 sequence (O96017 whole entry): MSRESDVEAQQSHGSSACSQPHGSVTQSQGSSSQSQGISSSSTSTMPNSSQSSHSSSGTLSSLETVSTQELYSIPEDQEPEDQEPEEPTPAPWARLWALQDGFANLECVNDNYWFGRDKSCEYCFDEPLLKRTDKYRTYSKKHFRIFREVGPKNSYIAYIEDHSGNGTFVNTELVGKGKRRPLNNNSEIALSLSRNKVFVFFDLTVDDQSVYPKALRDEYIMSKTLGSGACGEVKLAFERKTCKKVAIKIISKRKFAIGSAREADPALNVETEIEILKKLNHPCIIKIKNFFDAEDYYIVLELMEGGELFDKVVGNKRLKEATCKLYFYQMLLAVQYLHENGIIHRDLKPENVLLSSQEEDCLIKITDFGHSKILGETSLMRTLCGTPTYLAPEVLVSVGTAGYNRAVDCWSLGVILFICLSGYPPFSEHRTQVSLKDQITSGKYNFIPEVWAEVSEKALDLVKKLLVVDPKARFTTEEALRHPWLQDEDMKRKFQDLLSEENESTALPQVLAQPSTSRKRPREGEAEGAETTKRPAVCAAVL
Sequence of INSR (P06213 28-758): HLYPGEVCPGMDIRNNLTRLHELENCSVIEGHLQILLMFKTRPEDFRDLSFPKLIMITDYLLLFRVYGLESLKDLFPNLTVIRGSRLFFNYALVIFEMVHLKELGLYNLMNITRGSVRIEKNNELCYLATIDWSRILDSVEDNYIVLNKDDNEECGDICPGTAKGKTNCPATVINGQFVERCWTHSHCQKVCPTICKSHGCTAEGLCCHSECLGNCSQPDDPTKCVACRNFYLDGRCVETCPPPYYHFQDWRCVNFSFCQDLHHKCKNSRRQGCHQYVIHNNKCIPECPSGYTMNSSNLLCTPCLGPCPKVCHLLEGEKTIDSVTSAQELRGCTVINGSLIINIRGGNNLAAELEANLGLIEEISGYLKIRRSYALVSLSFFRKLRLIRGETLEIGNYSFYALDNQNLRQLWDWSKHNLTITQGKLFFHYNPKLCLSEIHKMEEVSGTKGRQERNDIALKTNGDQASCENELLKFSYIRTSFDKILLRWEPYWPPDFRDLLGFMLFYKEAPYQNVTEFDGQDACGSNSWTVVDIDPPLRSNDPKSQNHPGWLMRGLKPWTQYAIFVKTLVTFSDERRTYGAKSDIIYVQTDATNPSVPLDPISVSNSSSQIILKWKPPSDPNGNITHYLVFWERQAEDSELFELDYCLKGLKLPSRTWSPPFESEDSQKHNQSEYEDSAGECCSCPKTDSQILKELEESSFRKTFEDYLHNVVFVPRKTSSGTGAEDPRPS
Sequence of INSR (P06213 763-1382): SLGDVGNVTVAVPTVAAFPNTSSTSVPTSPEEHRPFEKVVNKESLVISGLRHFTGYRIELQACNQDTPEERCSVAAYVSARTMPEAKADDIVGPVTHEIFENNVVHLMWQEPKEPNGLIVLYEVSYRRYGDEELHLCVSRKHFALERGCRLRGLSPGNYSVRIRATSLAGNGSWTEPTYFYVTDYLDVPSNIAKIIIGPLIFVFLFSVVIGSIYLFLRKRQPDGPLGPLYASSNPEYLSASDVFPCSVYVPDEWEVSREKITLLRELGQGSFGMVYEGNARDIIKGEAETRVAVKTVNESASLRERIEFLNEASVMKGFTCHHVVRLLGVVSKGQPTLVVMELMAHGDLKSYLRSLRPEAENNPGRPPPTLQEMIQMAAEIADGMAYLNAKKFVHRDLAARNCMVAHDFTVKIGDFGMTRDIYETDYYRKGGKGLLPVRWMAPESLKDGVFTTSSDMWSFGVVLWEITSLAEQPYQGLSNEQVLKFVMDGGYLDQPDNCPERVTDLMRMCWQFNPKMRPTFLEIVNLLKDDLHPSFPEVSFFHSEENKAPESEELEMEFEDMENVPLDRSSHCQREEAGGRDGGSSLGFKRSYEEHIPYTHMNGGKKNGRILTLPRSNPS

inhibition at 300 µM (RSK1): 91%
SMILES: Clc1ccc(-c2cnc3[nH]ccc3c2)cc1 [4j]

inhibition at 300 µM (AurA): 99%
inhibition at 300 µM (PKD2): 92%
inhibition at 300 µM (INSR): 93%
inhibition at 300 µM (CHK2): 91%
SMILES: c1ccc(-c2cnc3[nH]ccc3c2)cc1 [4n]

IC50 (ABL [1]): 8.11 µM
SMILES: c1ccc(-c2ccc3ncccc3c2)cc1 [4o]

IC50 (ABL [2]): 19.2 µM
SMILES: Clc1ccnc2ccc(-c3ccccc3)cc12 [4p]
